Assay results as given in patent US20170332691A1, “NUTRITIONAL COMPOSITIONS COMPRISING SN-1 (3) MONOACYLGLYCEROLS FOR USE IN THE TREATMENT OF MALABSORPTION OR MALDIGESTION IN INFANTS OR YOUNG CHILDREN” (NESTEC S.A., priority 2014, published 2017).

Assays:
[1] = lipid maldigestion or malabsorption rat model (XENICAL/Orlistat), EPA in red blood cells and tissues; assay type: in vivo; settings: for level of EPA incorporated in red blood cells: rats fed with XENICAL, day 7 (FIG. 3)
Procedure: The concept was tested in a lipid maldigestion or malabsorption rat model. The maldigestion or malabsorption condition was obtained using XENICAL® (ORLISTAT, tetrahydrolipstatin), a pancreatic and gastric lipases inhibitor. Rats were fed during 21 days with long-chain polyunsaturated fatty acid (LC-PUFA) supplements containing mainly eicosapentaenoic (EPA) acid. Fish oil was used as a source of triacylglycerols, and different EPA glycerides were evaluated: […] XENICAL® (ORLISTAT) was given at a level sufficient to decrease lipid absorption by 40%. A group receiving fish oil without XENICAL® (ORLISTAT) was used as a positive control. At different time intervals (D3, D7, […]), the fatty acid profiles of red blood cells and plasma lipids were determined. At the end of the experiment, the fatty acid profiles of different tissues were determined. The main objective was to follow the level of EPA in red blood cells and plasma lipids. The main comparison evaluated was the difference in EPA level between the group receiving EPA glycerides such as EPA-containing sn-1(3) MAG, in combination with XENICAL® (ORLISTAT) and the positive control group (fish oil+XENICAL® (ORLISTAT)).

[2] = clinical study: sn-1(3) MAG vs fish oil (TAG) delivering EPA under XENICAL-induced lipid maldigestion; assay type: in vivo, human
Procedure: This clinical study compared the efficacy of sn-1(3) MAG and fish oil (TAG) in delivering EPA in humans under lipid maldigestion conditions induced by XENICAL® (ORLISTAT). The comparison was tested in volunteers treated with XENICAL® to induce lipid maldigestion or not treated with XENICAL® (ORLISTAT). The primary objective was to assess accretion of EPA in erythrocytes over 21 days when consumed as fish oil (TAG) or sn-1(3) MAG. The secondary objectives were to assess accretion of EPA in plasma over 21 days and also to assess the pharmacokinetics of EPA after an acute dose either in the form of sn-1(3) MAG or TAG (AUC in chylomicrons over 10 hours postprandial). See FIG. 4 that describes the clinical study timeline.

Compound	level of EPA incorporated in red blood cells ([1]; compared with fish oil + XENICAL, all P values lower than 0.05)	level of EPA incorporated in red blood cells ([1]; compared with fish oil group without XENICAL)	incorporation of LC-PUFAs in tissue ([1]; rats with XENICAL, comparing groups A, B and C)	carrier for EPA (overall conclusion of the clinical trial) ([2]; human subjects treated with XENICAL, vs fish oil (TAG))	accretion of EPA in erythrocytes after 21 days (chronic effect) ([2]; humans, with XENICAL, in comparison to fish oil and XENICAL, p=0.0001 (FIG. 6))	accretion of EPA in plasma after 21 days (chronic effect) ([2]; humans, with XENICAL, relative to fish oil and XENICAL, p=0.0003 (FIG. 7))	EPA incorporation in red blood cells ([1]; rats fed fish oil with XENICAL vs fish oil without XENICAL, day 7)
CC/C=C\C/C=C\C/C=C\C/C=C\C/C=C\CCCC(=O)OCC(O)CO (stereo not shown) [Sn-1(3)-MAG-EPA, sn-1(3)-monoeicosapentaenoylglycerol]	statistically higher	even higher than the fish oil group	improved	better carrier for EPA than fish oil (TAG)	statistically significant	statistically significant	
CCCCCCCCCCC[C@@H](C[C@@H]1OC(=O)[C@H]1CCCCCC)OC(=O)[C@H](CC(C)C)NC=O [XENICAL® (ORLISTAT), tetrahydrolipstatin, reference compound]							decreases EPA incorporation in red blood cells
